This note sets out measurements from BindingDB's records for doi:10.1016/j.bmcl.2008.12.050 (Merck Research Laboratories, 2009).

Where a name gives a salt, the structure may show the parent alone.

This assay is described as follows: Antagonist activity at human CCR2 receptor expressed in CHO cells by chemotaxis assay.
Turning to `CC(C)[C@]1(C(=O)NCc2cc(C(F)(F)F)cc(C(F)(F)F)c2)CC[C@@H](NC2CCOCC2C(F)(F)F)C1` (stereo partly drawn) [(1S,3R)-N-(3,5-bis(trifluoromethyl)benzyl)-1-isopropyl-3-(3-(trifluoromethyl)tetrahydro-2H-pyran-4-ylamino)cyclopentanecarboxamide], the 50% inhibitory concentration (IC50) (in general, the point on the concentration scale where inhibition reaches its midpoint) amounted to 1 nM.

With `CC1COCCC1N[C@@H]1CC[C@@](C(=O)NCc2cc(C(F)(F)F)cc(C(F)(F)F)c2)(C(C)C)C1` (stereo partly drawn) [(1S,3R)-N-(3,5-bis(trifluoromethyl)benzyl)-1-isopropyl-3-(3-methyltetrahydro-2H-pyran-4-ylamino)cyclopentanecarboxamide], half-maximal inhibition (IC50) required 0.1 nM.

`CCCC1COCCC1N[C@@H]1CC[C@@](C(=O)NCc2cc(C(F)(F)F)cc(C(F)(F)F)c2)(C(C)C)C1` (stereo partly drawn) [(1S,3R)-N-(3,5-bis(trifluoromethyl)benzyl)-1-isopropyl-3-(3-propyltetrahydro-2H-pyran-4-ylamino)cyclopentanecarboxamide]: it took 5.1 nM to reach half-maximal inhibition (IC50).

For `CC(C)[C@]1(C(=O)NCc2cc(C(F)(F)F)cc(C(F)(F)F)c2)CC[C@@H](NC2COC2)C1` [(1S,3R)-N-(3,5-bis(trifluoromethyl)benzyl)-1-isopropyl-3-(oxetan-3-ylamino)cyclopentanecarboxamide trifluoroacetate], the IC50 came out at 3.3 nM.

`CCC1COCCC1N[C@@H]1CC[C@@](C(=O)NCc2cc(C(F)(F)F)cc(C(F)(F)F)c2)(C(C)C)C1` (stereo partly drawn) [(1S,3R)-N-(3,5-bis(trifluoromethyl)benzyl)-3-(3-ethyltetrahydro-2H-pyran-4-ylamino)-1-isopropylcyclopentanecarboxamide]: the midpoint of inhibition, the IC50, lay at 0.3 nM.

Compound `CC(C)[C@]1(C(=O)NCc2cc(C(F)(F)F)cc(C(F)(F)F)c2)CC[C@@H](NC2CCOCC2F)C1` (stereo partly drawn) [(1S,3R)-N-(3,5-bis(trifluoromethyl)benzyl)-3-(3-fluorotetrahydro-2H-pyran-4-ylamino)-1-isopropylcyclo pentanecarboxamide] yielded an IC50 of 0.8 nM.
